Data from patent US4260608A, “Maytansinoids, pharmaceutical compositions thereof and methods of use thereof” (Takeda Chemical Industries, Ltd., priority 1978, dated 1981).
Values after ≈ are worked out from the molar mass of the structure shown. Read-outs that look alike come from different tables or passages of the source.

Assays:
[1] = tested on: Tetrahymena pyriformis W; assay: Antiprotozoal activity, growth inhibition by serial dilution method; type: cell-based
Method: Antiprotozoal activity of compound (I) was assayed with Tetrahymena pyriformis W as the test organism and a medium composed of 20 g tryptose-peptone (Difco Co.), 1 g yeast extract, 2 g glucose, 1000 ml distilled water, 10 ml 1 M phosphate buffer (pH 7.0) as the assay medium. The microorganism was incubated at 28° C. for 44 to 48 hours and the growth inhibitory activity of compound (I) was assayed by the serial dilution method.

[2] = tested on: melanoma B-16 tumor cells; assay: Antitumor activity, life span prolongation in mice transplanted intraperitoneally with melanoma B-16; type: in vivo; conditions: intraperitoneal, once daily for 9 consecutive days
Method: Therapeutic tests were carried out in mice according to NCI-protocol 1,300, Cancer Chemother, Reports, Part 3, 1972, Vol. 3, No. 2, in which melanoma B-16 tumor cells had been intraperitoneally transplanted, compound (I) being administered intraperitoneally once daily for 9 consecutive days.

[3] = Tetrahymena pyriformis W, 28° C., 44 to 48 hours, pH 7.0 medium, serial dilution, read-out: Antiprotozoal activity MIC

Structure (SMILES)	MIC [1, 3] [µg/mL]	Antitumor activities B-16 (T/C %) ([2]; 25 μg/kg) [%]	Antitumor activities B-16 (T/C %) ([2]; 50 μg/kg) [%]	Antitumor activities B-16 (T/C %) ([2]; 100 μg/kg) [%]	Antitumor activities B-16 (T/C %) ([2]; 200 μg/kg) [%]	MIC ([1]; Tetrahymena pyriformis, pH 7, read-out: Antiprotozoal activity MIC) [µg/mL]	Antitumor activities B-16 (T/C %) ([2]; 12.5 μg/kg) [%]
COc1cc2cc(c1Cl)N(C)C(=O)CC(OC(=O)[C@H](Cc1ccccc1)N(C)C(C)=O)C1(C)OC1C(C)C1CC(O)(NC(=O)O1)C(OC)C=CC=C(C)C2 (stereo partly shown)	1 (≈ 1.3 µM)	211	208	205	95	–	–
COc1cc2cc(c1Cl)N(C)C(=O)CC(OC(=O)[C@@H](CC(C)C)N(C)C(C)=O)C1(C)OC1C(C)C1CC(O)(NC(=O)O1)C(OC)C=CC=C(C)C2 (stereo partly drawn) [maytansinol 3-(N-acetyl-N-methyl)-D-leucine ester]	–	–	–	–	–	28 (≈ 38.1 µM)	–
COc1cc2cc(c1Cl)N(C)C(=O)CC(OC(=O)[C@H](CC(C)C)N(C)C(C)=O)C1(C)OC1C(C)C1CC(O)(NC(=O)O1)C(OC)C=CC=C(C)C2 (stereo partly drawn) [maytansinol 3-(N-acetyl-N-methyl)-L-leucine ester]	2 (≈ 2.72 µM)	171	209	202	65	–	–
COc1cc2cc(c1Cl)N(C)C(=O)CC(OC(=O)[C@H](C)N(C)C(=O)c1ccccc1)C1(C)OC1C(C)C1CC(O)(NC(=O)O1)C(OC)C=CC=C(C)C2 (stereo partly drawn) [maytansinol 3-(N-benzoyl-N-methyl)-L-alanine ester]	2 to 4 (≈ 2.65 to 5.3 µM)	–	–	–	–	–	–
COc1cc2cc(c1Cl)N(C)C(=O)CC(OC(=O)[C@H](Cc1ccccc1)NC(=O)OC(C)(C)C)C1(C)OC1C(C)C1CC(O)(NC(=O)O1)C(OC)C=CC=C(C)C2 (stereo partly drawn) [maytansinol 3-(N-t-butyloxycarbonyl)-L-phenylalanine ester]	4 (≈ 4.92 µM)	–	–	–	–	–	–
COc1cc2cc(c1Cl)N(C)C(=O)CC(OC(=O)[C@@H](C)N(C)C(=O)OC(C)(C)C)C1(C)OC1C(C)C1CC(O)(NC(=O)O1)C(OC)C=CC=C(C)C2 (stereo partly drawn) [maytansinol 3-(N-tert-butoxycarbonyl-N-methyl)-D-alanine ester]	8 (≈ 10.7 µM)	–	–	–	–	–	–
COc1cc2cc(c1Cl)N(C)C(=O)CC(OC(=O)[C@H](C)N(C)C(=O)OC(C)(C)C)C1(C)OC1C(C)C1CC(O)(NC(=O)O1)C(OC)C=CC=C(C)C2 (stereo partly drawn) [maytansinol 3-(N-tert-butoxycarbonyl-N-methyl)-L-alanine ester]	0.4 to 0.8 (≈ 0.533 to 1.07 µM)	178	198	193	–	–	163
